Test results taken from patent US6384056B1, “Heterocyclic thioesters or ketones for vision and memory disorders” (GPI NIL Holdings, Inc., priority 1998, dated 2002).
Marks after values point to notes of the source that are not given here.

What was measured:
[1] = tested on: retinal ganglion cells and optic nerve axons; assay: optic nerve transection: retinal ganglion cell survival, optic nerve axon preservation and myelination 90 days after transection; assay type: in vivo, rat; settings: for RGC Counts: mean density + SEM of Fluoro-gold labeled RGC in 400 μm × 400 μm gridfields; for ON Axon density: RT97 labeled axons in 200 μm × 200 μm region, mean + SEM; for Proximal optic nerve myelin basic protein Density: % areal coverage of optic nerve cross section, ± SEM; for increased ON axon density: adjusted for optic nerve diameter; for ON axon Count: calculated by multiplying axonal density by ON area; for Distal optic nerve myelin basic protein Density (myelin level): cross sectional area multiplied by myelin density
Description: All eyes and optic nerves stumps were removed.

[2] = tested on: retinal ganglion cells and optic nerve; assay: retinal ischemia: degeneration of retinal ganglion cells, optic nerve axons and myelin; assay type: in vivo, rat
Description: Retinal ganglion cells were retrogradely labeled in adult rats by bilateral injection of fluorogold in their lateral geniculate nuclei. Labeled ganglion cells in the normal rat retina appear as white profiles against the dark background (FIG. 1A). Complete retinal ischemia was produced by infusing normal saline solution into the retinal vitreous cavity of each eye until the intraocular pressure exceeded arterial blood pressure. 28 days after the ischemic episode extensive degeneration of retinal ganglion cell was evidenced by massive reduction in the density of fluorogold labeled cells (FIG. 1B).

retina = assay: streptozotocin induced diabetes: retinal neovascularization and neuronal loss; assay type: in vivo; settings: 28 day treatment beginning 8 weeks after onset of streptozotocin induced diabetes
[3] = tested on: retinal ganglion cell axons; assay: protection of retinal ganglion cell axons from degeneration 14 days after optic nerve transection (RT97); assay type: in vivo; settings: ± SEM
Description: Efficacy of represetative compounds from different immunophilin ligand series in protecting retinal ganglion cell axons from degeneration following optic nerve transection set forth in Table 9.
Efficacy of representative compounds from different immunophilin ligand series in protecting retinal ganglion cell axons from degeneration following optic nerve transection

Clearance = assay type: in vitro ADME; settings: Table 9 comments
[4] = tested on: streptozotocin-induced diabetic rat; assay: sensory neuropathy in streptozotocin-induced diabetes: hot plate and tail flick; assay type: in vivo; settings: lesioned animals treated for 6 weeks at 10 mg/kg s.c., treatment started six weeks after streptozotocin
Protocol: The procedure involved using Male Wistar rats which were given a single injection of streptozotocin (65 mg/kg i.v.). Blood glucose levels were determined weekly for the first three weeks and on the last week of the experiment. Animals were evaluated weekly for signs of sensory neuropathy using the conventional hot plate and tail flick apparatus test procedures.

aged mice = assay: Morris watermaze spatial learning and memory in aged rodents; assay type: in vivo, mouse; settings: aged impaired C57BL/6N-Nia mice, 10 mg/kg daily, retention testing after 3 weeks of dosing
Description: The Morris watermaze is widely used for assessing spatial memory formation and retention in experimental animals. The test depends on the animal's ability to utilize spatial visual information in order to locate a submerged escape platform in a water tank. It is important that the tank itself be as devoid of specific visual features as possible-thus, it is always circular in shape, the sides are kept smooth and in uniform dull colors, and the water is rendered opaque with nontoxic watercolor pigment or powdered milk. This is to ensure that the animal navigates only by the use of more distant visual cues, or by the use of intra-maze cues specifically provided by the experimenter. The tank is filled to a level which forces the animal to swim actively. Normal mice and rats react […] to the swimming part of the test and will climb onto, and remain on, an escape platform from which they are removed to a heated resting cage. If the platform is visible (i.e. above the surface), animals placed in the tank will quickly learn to home in on the platform and climb out onto it. […] Swim Distances (cm) were analyzed in a 7×5 ANOVA including Groups and Blocks (1-5) as factors in the analysis, treating Blocks as a repeated measure.

[5] = ONT/14 days GPI 1046, 90 days after transection
[6] = ONT/28 days GPI 1046, 90 days after transection
[7] = 28 days after 1 hour retinal ischemic episode, toluidine blue staining

SMILES: CCC(C)(C)C(=O)C(=O)N1CCC[C@H]1C(=O)OCCCc1cccnc1 [GPI 1046, 3-(3-pyridyl)-1-propyl (2s)-1-(3,3-dimethyl-1,2-dioxopentyl)-2-pyrrolidinecarboxylate]
- preservation of axons of protected neurons in the proximal stump ([1]; Example 16: 10 mg/kg/day s.c. for 28 days, 90 days after transection, RT97): preserved the axons of virtually all protected neurons
- ganglion cell population spared (perikaryal neuroprotection) ([1]; Example 16: 10 mg/kg/day s.c. for 28 days, sacrificed 90 days after transection): 25%
- protection of optic nerve axons ([1]; GPI 1046 for the first 14 days after optic nerve transection, proximal stump, 90 days): 5.3%
- RGC Counts ([1]; ONT/14 days GPI 1046, 10 mg/kg/day sc, 90 days after transection): small but not significant increase
- % RGCs Rescued [1, 5]: 5.3%
- % surviving RGCs with ON axons [1, 5]: 33.6%
- Distal optic nerve stump shrinkage (cross sectional area vs sham) [1, 5]: did not protect against shrinkage of the distal stump
- ON head area (% sham) [1, 5]: 76% sham
- Spared RGC population [1, 5]: 20,275
- ON Axon density [1, 5]: 569 ± 23
- Proximal optic nerve myelin basic protein Density ([1]; ONT/14 days GPI 1046): 1.6 ± 3.0 SEM % recovery
- increased ON axon density ([1]; ONT/14 days GPI 1046): 1.5×
- ON axon Count ([1]; ONT/14 days GPI 1046): 6820
- Distal optic nerve myelin basic protein Density (myelin level) ([1]; ONT/14 days GPI 1046): slightly increase the density of myelin
- RGC Counts ([1]; ONT/28 days GPI 1046, 10 mg/kg/day sc, 90 days after transection): 67.9 + 5.8*
- % surviving RGCs with ON axons [1, 6]: 81.4%
- Distal optic nerve stump shrinkage (cross sectional area vs sham) [1, 6]: prevented cross sectional shrinkage of the distal stump
- ON head area (% sham) [1, 6]: 95%* % sham
- Spared RGC population [1, 6]: 28,096*
- ON Axon density [1, 6]: significant increase in the density of large, and particularly medium and small caliber optic nerve axons
- Proximal optic nerve myelin basic protein Density ([1]; ONT/28 days GPI 1046): 70 ± 6.3 SEM % recovery
- increased ON axon density ([1]; ONT/28 days GPI 1046): 5.0×
- ON axon Count ([1]; ONT/28 days GPI 1046): 22,861*
- Distal optic nerve myelin basic protein Density (myelin level) ([1]; ONT/28 days GPI 1046): 99% myelin % myelin preservation
- protection of retinal ganglion cells (density of fluorogold labeled cells) ([2]; 10 mg/kg s.c. 1 hour prior to ischemic episode and 10 mg/kg/day for next four days, 28 days after ischemia): noticeable protection of a large proportion of the vulnerable ganglion cell population
- density of degenerating myelin figures [2, 7]: dramatically decreased the density of degenerating myelin figures
- protection of optic nerve axons from ischemic degeneration [2, 7]: protected the majority of optic nerve axons from degeneration
- neovascularization in the PR, ONL, OPL and INL (retina): reduced neovascularization
- neuronal loss in the ONL (retina): did not appear to protect against neuronal loss in the ONL
- loss of neurons in the INL and GCL (retina; vs streptozotocin/vehicle): appeared to decrease the loss of neurons in both the INL and GCL
- RT 97 + RGC axon density 14 days after ON transaction (36 ON axons rescued) [3]: 60.5% ±3.9 SEM
- Clearance (Clearance): 63.8 µL/min
- latency in hot plate and tail flick tests [4]: improvement in latency
- spatial memory performance (swim distance), retention testing (aged mice): significantly enhanced spatial memory performance
